From ChEMBL document CHEMBL3102731, “Structure-activity relationship studies and biological characterization of human NAD(+)-dependent 15-hydroxyprostaglandin dehydrogenase inhibitors” (Bioorg Med Chem Lett, 2014)

Key:
LNCaP [1] = assay: Induction of PGE2 production in human LNCAP cells at 41.9 nM to 100 uM after 16 hrs by HTRF assay relative to control; assay type: functional
LNCaP [2] = assay: Induction of PGE2 production in human LNCAP cells assessed as half-maximal activation concentration after 16 hrs by HTRF assay; assay type: functional, cell-based
A549 [3] = assay: Induction of PGE2 production in human A549 cells at 775 pM to 45.8 uM after 4 to 20 hrs by HTRF assay relative to control; assay type: functional
A549 [4] = assay: Induction of PGE2 production in human A549 cells assessed as concentration required for half-maximal activation after 4 to 20 hrs by HTRF assay; assay type: functional, cell-based
[5] = target: T1, Aldehyde dehydrogenase 1A1 (Homo sapiens, UniProt P00352); assay: Inhibition of ALDH1A1 (unknown origin) using NAD+/propionaldehyde as substrate after 15 mins by UV-fluorescence assay
T1 sequence (P00352 whole entry): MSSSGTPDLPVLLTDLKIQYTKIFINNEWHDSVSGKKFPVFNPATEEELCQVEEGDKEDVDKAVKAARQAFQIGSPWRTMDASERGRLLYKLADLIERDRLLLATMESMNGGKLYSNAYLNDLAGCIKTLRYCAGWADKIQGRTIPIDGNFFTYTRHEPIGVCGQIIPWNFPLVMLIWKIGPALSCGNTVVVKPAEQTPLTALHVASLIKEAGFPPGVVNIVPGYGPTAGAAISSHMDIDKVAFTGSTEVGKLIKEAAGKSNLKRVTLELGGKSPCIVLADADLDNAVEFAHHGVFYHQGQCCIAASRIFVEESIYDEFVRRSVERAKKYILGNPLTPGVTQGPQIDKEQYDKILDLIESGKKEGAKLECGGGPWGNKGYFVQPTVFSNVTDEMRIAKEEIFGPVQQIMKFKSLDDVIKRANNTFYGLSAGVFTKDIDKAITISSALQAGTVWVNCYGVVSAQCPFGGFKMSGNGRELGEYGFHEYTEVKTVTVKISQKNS

[6] = target: T2, Peroxisomal multifunctional enzyme type 2 (Homo sapiens, UniProt P51659); assay: Inhibition of HSD17beta4 (unknown origin) using NAD+/estradiol as substrate at 324 pM to 57.2 uM after 15 mins by UV-fluorescence assay
T2 sequence (P51659 whole entry): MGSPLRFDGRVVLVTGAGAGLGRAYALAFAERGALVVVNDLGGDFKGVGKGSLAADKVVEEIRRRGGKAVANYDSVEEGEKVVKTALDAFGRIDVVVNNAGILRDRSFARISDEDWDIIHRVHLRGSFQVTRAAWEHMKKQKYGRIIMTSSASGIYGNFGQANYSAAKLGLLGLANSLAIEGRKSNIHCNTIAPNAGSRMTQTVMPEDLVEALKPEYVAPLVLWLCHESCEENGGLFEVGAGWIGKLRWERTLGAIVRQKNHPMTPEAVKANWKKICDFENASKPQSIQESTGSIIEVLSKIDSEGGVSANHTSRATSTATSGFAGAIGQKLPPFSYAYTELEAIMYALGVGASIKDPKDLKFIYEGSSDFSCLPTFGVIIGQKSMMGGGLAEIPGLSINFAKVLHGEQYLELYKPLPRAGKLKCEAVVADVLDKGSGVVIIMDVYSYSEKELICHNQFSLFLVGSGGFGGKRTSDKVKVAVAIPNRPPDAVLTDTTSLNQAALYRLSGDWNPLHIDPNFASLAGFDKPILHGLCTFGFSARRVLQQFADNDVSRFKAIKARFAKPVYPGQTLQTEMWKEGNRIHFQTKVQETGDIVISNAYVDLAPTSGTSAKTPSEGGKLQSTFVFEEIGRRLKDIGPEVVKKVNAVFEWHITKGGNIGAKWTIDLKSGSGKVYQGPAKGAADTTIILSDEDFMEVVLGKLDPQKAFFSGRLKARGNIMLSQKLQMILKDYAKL

[7] = target: L-lactate dehydrogenase B chain (Homo sapiens, UniProt P07195); assay: Inhibition of LDHB (unknown origin) using sodium pyruvate as substrate at 0.46 to 57.5 uM after 15 mins by fluorescence assay
L-lactate dehydrogenase B chain, sequence (P07195 whole entry): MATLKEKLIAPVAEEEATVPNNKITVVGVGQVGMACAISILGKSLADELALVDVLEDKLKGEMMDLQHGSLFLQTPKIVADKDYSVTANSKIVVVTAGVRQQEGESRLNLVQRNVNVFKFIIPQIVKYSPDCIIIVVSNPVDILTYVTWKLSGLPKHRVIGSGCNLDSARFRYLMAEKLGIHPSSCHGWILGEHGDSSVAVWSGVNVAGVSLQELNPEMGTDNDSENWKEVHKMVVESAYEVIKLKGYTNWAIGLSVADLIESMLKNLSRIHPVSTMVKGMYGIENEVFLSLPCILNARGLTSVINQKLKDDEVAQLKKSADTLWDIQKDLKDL

[8] = target: L-lactate dehydrogenase A chain (Homo sapiens, UniProt P00338); assay: Inhibition of LDHA (unknown origin) using sodium pyruvate as substrate at 0.46 to 57.5 uM after 15 mins by fluorescence assay
[9] = target: Glyceraldehyde-3-phosphate dehydrogenase (Oryctolagus cuniculus, UniProt P46406); assay: Inhibition of rabbit muscle GAPDH using glyceraldehyde-3-phosphate as substrate at 324 pM to 57.2 uM by fluorescence assay
Glyceraldehyde-3-phosphate dehydrogenase, sequence (P46406 whole entry): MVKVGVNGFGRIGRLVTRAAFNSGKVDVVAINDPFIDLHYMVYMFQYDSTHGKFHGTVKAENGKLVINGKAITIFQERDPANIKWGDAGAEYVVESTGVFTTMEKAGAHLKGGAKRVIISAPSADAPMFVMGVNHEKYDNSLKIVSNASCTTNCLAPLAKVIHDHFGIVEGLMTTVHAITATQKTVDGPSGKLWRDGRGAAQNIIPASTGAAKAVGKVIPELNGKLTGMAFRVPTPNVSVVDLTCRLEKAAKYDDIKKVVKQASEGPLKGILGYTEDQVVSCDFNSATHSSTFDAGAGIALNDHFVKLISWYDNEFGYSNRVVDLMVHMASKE

[10] = Kinetic solubility of the compound in PBS buffer at pH 7.4; assay type: physicochemical
Liver microsome = assay: Half life in rat liver microsomes in presence of NADPH; assay type: ADME
[11] = Passive permeability of the compound at pH 7.4 by PAMPA; assay type: ADME
[12] = target: T3, 15-hydroxyprostaglandin dehydrogenase [NAD(+)] (Homo sapiens, UniProt P15428); assay: Inhibition of human HPGD using PGE2 as substrate after 15 mins by fluorescence assay
T3 sequence (P15428 whole entry): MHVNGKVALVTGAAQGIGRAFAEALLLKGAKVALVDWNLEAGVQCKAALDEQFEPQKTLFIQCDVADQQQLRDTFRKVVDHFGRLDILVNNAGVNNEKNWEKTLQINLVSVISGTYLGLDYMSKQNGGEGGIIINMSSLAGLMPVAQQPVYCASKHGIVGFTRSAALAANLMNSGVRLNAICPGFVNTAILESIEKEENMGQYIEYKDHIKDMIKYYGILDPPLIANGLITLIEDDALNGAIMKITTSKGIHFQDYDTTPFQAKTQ

IC50 [5] [nM]	IC50 [6]	IC50 [7]	IC50 [8]	IC50 [9]	Kinetic_solubility [10] [µM]	t1/2 (Liver microsome) [min]	permeability [11] [×10⁻⁶ cm/s]	IC50 [12] [nM]	SMILES	Activity (LNCaP [1]) [%]	AC50 (LNCaP [2]) [nM]	Activity (A549 [3]) [%]	AC50 (A549 [4]) [nM]
4820	Not Active	Not Active	Not Active	Not Active	37	2	1100	34	Cc1cc(-c2nnc3n2CCCCC3)c(C)n1-c1cccc(Cl)c1	68	558	114	590
2410	Not Active	Not Active	Not Active	Not Active	28	1.8	1330	34	Cc1ccc(-n2c(C)cc(-c3nnc4n3CCCCC4)c2C)cc1	71	703	107	166
1920	Not Active	Not Active	Not Active	Not Active	5.6	1.8	2260	68	Cc1cccc(-n2cnc3cc(C(=O)N4CCCC(C)(C)C4)ccc32)c1	53	4430	127	743
6810	Not Active	Not Active	Not Active	Not Active	> 55	4.4	1350	48	O=C(c1ccc2c(c1)ncn2-c1cccc(C(F)(F)F)c1)N1CCCCC1	70	2800	173	2640
